Source: publication PMC2988379 (The Journal of Biological Chemistry, 2010)
Residue numbers refer to the chain shown, from its start. Read-outs that look alike come from different tables or passages of the source.

Assays:
Experiment in all cases: intrinsic Trp fluorescence titration
Format in all cases: binding
[1] = molecular target: T1, PimB′ (Corynebacterium glutamicum PimB′, NCgl2106) (Corynebacterium glutamicum, UniProt Q8NNK8)
T1 sequence (Q8NNK8 1-381): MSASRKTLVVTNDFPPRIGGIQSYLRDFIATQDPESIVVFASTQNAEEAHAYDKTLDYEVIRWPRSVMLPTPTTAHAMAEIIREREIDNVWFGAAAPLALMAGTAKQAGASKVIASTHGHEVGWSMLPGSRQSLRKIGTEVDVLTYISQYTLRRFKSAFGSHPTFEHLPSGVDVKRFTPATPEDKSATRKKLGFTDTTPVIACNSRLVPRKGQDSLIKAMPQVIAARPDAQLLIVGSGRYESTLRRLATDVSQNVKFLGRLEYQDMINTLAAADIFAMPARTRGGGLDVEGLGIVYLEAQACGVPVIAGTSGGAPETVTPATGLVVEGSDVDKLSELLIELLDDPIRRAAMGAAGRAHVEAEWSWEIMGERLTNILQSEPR

[2] = molecular target: T2, PimB′ (Corynebacterium glutamicum PimB′, NCgl2106) (Corynebacterium glutamicum, UniProt Q8NNK8, D13N)
T2 sequence (Q8NNK8 1-381 D13N): T1 sequence (Q8NNK8 1-381) with D13N

[3] = molecular target: T1, PimB′ (Corynebacterium glutamicum PimB′, NCgl2106); remark: listed apart in the source
[4] = molecular target: T3, PimB′ (Corynebacterium glutamicum PimB′, NCgl2106) (Corynebacterium glutamicum, UniProt Q8NNK8, D13A)
T3 sequence (Q8NNK8 1-381 D13A): T1 sequence (Q8NNK8 1-381) with D13A

[5] = molecular target: T4, PimB′ (Corynebacterium glutamicum PimB′, NCgl2106) (Corynebacterium glutamicum, UniProt Q8NNK8, H118S)
T4 sequence (Q8NNK8 1-381 H118S): T1 sequence (Q8NNK8 1-381) with H118S

[6] = molecular target: T5, PimB′ (Corynebacterium glutamicum PimB′, NCgl2106) (Corynebacterium glutamicum, UniProt Q8NNK8, R206S)
T5 sequence (Q8NNK8 1-381 R206S): T1 sequence (Q8NNK8 1-381) with R206S

[7] = molecular target: T6, PimB′ (Corynebacterium glutamicum PimB′, NCgl2106) (Corynebacterium glutamicum, UniProt Q8NNK8, G20W)
T6 sequence (Q8NNK8 1-381 G20W): T1 sequence (Q8NNK8 1-381) with G20W

[8] = molecular target: T7, PimB′ (Corynebacterium glutamicum PimB′, NCgl2106) (Corynebacterium glutamicum, UniProt Q8NNK8, Q22A)
T7 sequence (Q8NNK8 1-381 Q22A): T1 sequence (Q8NNK8 1-381) with Q22A

[9] = molecular target: T8, PimB′ (Corynebacterium glutamicum PimB′, NCgl2106) (Corynebacterium glutamicum, UniProt Q8NNK8, G291S)
T8 sequence (Q8NNK8 1-381 G291S): T1 sequence (Q8NNK8 1-381) with G291S

[10] = molecular target: T9, PimB′ (Corynebacterium glutamicum PimB′, NCgl2106) (Corynebacterium glutamicum, UniProt Q8NNK8, R210S)
T9 sequence (Q8NNK8 1-381 R210S): T1 sequence (Q8NNK8 1-381) with R210S

[11] = molecular target: T10, PimB′ (Corynebacterium glutamicum PimB′, NCgl2106) (Corynebacterium glutamicum, UniProt Q8NNK8, I21A)
T10 sequence (Q8NNK8 1-381 I21A): T1 sequence (Q8NNK8 1-381) with I21A

[12] = molecular target: T11, PimB′ (Corynebacterium glutamicum PimB′, NCgl2106) (Corynebacterium glutamicum, UniProt Q8NNK8, S205G)
T11 sequence (Q8NNK8 1-381 S205G): T1 sequence (Q8NNK8 1-381) with S205G

SMILES | Kd [1] | Kd [2] | Kd [3] | Kd [4] | Kd [5] | Kd [6] | Kd [7] | Kd [8] | Kd [9] | Kd [10] | Kd [11] | Kd [12]
Nc1nc2c(ncn2[C@@H]2O[C@H](COP(=O)(O)OP(=O)(O)O)[C@@H](O)[C@H]2O)c(=O)[nH]1 [GDP] | 36.5 ± 6.9 µM |  |  |  |  |  |  |  |  |  |  | 
Nc1nc2c(ncn2[C@@H]2O[C@H](COP(=O)(O)OP(=O)(O)O[C@H]3O[C@H](CO)[C@@H](O)[C@H](O)[C@@H]3O)[C@@H](O)[C@H]2O)c(=O)[nH]1 [GDP-Man] |  | 30.1 ± 6.9 µM | 19 ± 4.6 µM | 42.8 ± 11.9 µM | 72.4 ± 27.5 µM | 42.7 ± 9.4 µM | 21.9 ± 6.4 µM | 60.3 ± 22.8 µM | 68.7 ± 35.5 µM | 40.2 ± 10.7 µM | 56 ± 14.5 µM | 18.7 ± 4.6 µM
